Reference: patent publication US20240368225A1, “SELECTIVE SMALL MOLECULE AGONISTS AND PARTIAL AGONISTS OF TRK RECEPTORS” (THE TEXAS A&M UNIVERSITY SYSTEM, priority 2021, published 2024)
Like-named read-outs stand apart in the source and are kept apart here. *1 amine or outer side, *2 acyl side, *3 side chain or, on linkers, in order; H or OH if unused. Where a SMILES comes first, the peptide text is derived from it. Bridges are numbered along the chain shown (N, C = ends). X1 = COc1ccc(C2=C3C=C(S(=O)(=O)O)C([*:1])=[N+]3[B-](F)(F)n3c2cc(S(=O)(=O)O)c3[*:2])cc1

Assays:
[1] = tested on: HeLa-TrkA cells; format: cell-based
Method: (§1) Cells were seeded at a density of 2000 cells per well. Cells were incubated in complete media for 24 hours. The media was aspirated, the cells washed twice with Dulbecco's Phosphate Buffered Saline, and the media was replaced with serum-free media to induce apoptosis unless otherwise halted. […] Cell survival was measured via alamarBlue assay after 48-72 hours to determine cell viability.
(§2) The most promising compounds from the screen were selected for each cell line. Cells were treated with a serial dilution of the compound in serum free media with or without suboptimal neurotrophin and incubated for 48-72 hours, after which an alamarBlue assay was done to determine cell viability. Cell viability was normalized to DMSO (0%) and optimal neurotrophin (100%), depending on cell type. EC50 was calculated in Graphpad Prism using the dose response “[agonist] vs response—Variable slope” function. Data is presented as the mean +/−standard deviation of an experiment with 3-6 replicates. Results for selected compounds with HeLa-TrkA cells can be found in FIG. 19A-19D. Results for selected compounds with HEK293-TrkB cells can be found in FIG. 20A-20C. Results for selected compounds with NIH3T3-TrkC cells can be found in FIG. 21A-21D.

[2] = target: TrkA (Homo sapiens, UniProt P04629); conditions: background statement; cited from earlier work
[3] = target: TrkC (Homo sapiens, UniProt Q16288); conditions: background statement; cited from earlier work
[4] = target: T1, p75 (Homo sapiens, UniProt P08138); conditions: background statement; cited from earlier work
T1 sequence (P08138 29-427): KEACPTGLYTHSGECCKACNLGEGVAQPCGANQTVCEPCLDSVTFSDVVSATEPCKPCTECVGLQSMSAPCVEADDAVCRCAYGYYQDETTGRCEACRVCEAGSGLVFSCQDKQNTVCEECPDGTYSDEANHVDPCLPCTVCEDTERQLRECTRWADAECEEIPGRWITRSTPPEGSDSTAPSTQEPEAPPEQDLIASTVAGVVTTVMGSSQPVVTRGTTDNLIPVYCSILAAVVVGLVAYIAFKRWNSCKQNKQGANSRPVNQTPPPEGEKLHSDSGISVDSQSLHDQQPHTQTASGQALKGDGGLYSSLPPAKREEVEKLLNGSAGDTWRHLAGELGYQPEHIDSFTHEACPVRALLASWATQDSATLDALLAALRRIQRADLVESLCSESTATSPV

[5] = tested on: Goblet cells; conditions: in vitro, background statement; cited from earlier work
[6] = target: HEK293-TrkB cells (Homo sapiens, UniProt Q16620); test: HEK293-TrkB cell survival dose response (alamarBlue); format: cell-based; conditions: for EC50: EC50, HEK293-TrkB cell survival, serum-free media, 48-72 hours; for Partial or True Agonism: HEK293-TrkB cell survival
Method: as §1, §2

[7] = tested on: NIH3T3-TrkC cells; format: cell-based; conditions: NIH3T3-TrkC cell survival
Method: as §1
Cells were treated with a serial dilution of the compound in serum free media with or without suboptimal neurotrophin and incubated for 48-72 hours, after which an alamarBlue assay was done to determine cell viability. Cell viability was normalized to DMSO (0%) and optimal neurotrophin (100%), depending on cell type. EC50 was calculated in Graphpad Prism using the dose response “[agonist] vs response—Variable slope” function. Data is presented as the mean +/−standard deviation of an experiment with 3-6 replicates.

[8] = HeLa-TrkA cell survival, without suboptimal neurotrophin
[9] = HeLa-TrkA cell survival, + 0.2 nM NGF
[10] = HeLa-TrkA cell survival, serum-free media, + 0.2 nM NGF (suboptimal), 48-72 hours, read-out: EC50
[11] = HeLa-TrkA cell survival, serum-free media, without suboptimal neurotrophin, 48-72 hours, read-out: EC50
[12] = without suboptimal neurotrophin

Chain of HEK293-TrkB cells (Q16620 32-822): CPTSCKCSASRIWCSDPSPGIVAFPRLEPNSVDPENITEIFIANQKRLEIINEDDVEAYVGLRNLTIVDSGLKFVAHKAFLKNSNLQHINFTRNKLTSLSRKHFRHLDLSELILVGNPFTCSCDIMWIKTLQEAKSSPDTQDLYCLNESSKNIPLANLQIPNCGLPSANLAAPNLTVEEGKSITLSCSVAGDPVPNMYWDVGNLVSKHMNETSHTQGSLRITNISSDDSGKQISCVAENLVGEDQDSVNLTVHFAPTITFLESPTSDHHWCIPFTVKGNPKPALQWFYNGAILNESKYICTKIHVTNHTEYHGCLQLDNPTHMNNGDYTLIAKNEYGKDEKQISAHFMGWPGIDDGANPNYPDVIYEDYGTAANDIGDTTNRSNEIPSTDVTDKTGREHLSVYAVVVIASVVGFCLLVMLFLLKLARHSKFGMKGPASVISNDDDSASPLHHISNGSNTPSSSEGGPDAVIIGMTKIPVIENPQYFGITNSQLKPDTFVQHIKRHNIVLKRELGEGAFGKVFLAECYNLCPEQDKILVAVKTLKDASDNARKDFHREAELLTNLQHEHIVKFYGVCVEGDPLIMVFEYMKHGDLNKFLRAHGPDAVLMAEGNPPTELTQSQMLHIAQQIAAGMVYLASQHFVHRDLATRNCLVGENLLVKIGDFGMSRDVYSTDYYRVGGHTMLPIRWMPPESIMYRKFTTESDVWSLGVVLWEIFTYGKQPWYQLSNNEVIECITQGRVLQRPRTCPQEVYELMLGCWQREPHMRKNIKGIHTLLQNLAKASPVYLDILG
Chain of TrkC (Q16288 32-839, species assumed): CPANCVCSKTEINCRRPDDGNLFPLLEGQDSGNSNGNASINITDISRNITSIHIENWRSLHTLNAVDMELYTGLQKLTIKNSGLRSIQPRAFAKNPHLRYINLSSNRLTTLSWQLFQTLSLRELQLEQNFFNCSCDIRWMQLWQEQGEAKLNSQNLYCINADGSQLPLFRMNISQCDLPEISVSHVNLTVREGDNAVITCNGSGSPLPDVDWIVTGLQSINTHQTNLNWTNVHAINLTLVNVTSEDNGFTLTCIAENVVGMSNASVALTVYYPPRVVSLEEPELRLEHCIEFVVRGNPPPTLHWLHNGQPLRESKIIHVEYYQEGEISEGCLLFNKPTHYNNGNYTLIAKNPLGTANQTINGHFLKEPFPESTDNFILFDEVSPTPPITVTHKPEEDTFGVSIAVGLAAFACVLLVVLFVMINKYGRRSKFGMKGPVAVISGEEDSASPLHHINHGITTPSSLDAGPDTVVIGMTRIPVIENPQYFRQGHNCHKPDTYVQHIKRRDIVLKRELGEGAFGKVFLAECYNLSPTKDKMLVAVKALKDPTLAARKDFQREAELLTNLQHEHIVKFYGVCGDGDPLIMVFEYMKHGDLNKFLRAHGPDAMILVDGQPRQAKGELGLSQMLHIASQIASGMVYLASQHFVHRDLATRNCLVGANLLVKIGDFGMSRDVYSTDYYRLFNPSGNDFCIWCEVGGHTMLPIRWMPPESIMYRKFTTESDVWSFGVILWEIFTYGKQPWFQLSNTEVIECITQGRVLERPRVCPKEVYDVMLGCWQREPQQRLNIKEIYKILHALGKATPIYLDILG
Chain of TrkA (P04629 33-796, species assumed): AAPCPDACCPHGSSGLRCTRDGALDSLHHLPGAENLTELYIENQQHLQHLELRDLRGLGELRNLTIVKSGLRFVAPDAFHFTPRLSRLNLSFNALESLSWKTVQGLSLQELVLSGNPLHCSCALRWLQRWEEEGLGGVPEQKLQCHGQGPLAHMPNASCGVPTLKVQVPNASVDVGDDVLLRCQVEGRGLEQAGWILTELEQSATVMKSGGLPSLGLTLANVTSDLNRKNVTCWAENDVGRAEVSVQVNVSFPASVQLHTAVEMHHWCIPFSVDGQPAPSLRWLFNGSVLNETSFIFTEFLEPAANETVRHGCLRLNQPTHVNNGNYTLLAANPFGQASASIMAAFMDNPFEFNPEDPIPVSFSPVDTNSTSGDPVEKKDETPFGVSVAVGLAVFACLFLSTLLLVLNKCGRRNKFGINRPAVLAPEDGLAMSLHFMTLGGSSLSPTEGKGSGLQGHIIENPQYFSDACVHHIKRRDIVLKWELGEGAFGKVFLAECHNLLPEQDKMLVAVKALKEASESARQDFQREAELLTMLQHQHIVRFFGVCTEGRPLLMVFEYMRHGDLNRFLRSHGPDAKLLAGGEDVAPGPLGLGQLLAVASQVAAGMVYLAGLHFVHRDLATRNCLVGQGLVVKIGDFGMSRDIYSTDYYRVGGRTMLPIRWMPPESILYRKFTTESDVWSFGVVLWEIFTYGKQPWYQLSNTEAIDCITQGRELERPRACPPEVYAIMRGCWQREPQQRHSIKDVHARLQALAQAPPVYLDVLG

Molecule	Partial or True Agonism [1, 8]	EC50 ([6]; + 0.6 nM BDNF (suboptimal)) [nM]	EC50 [6, 12] [nM]	Partial or True Agonism ([6]; + 0.6 nM BDNF)	Partial or True Agonism [6, 12]	Partial or True Agonism ([7]; + 0.2 nM NT3)	further results
CC[C@H](C)[C@@H]1NC(=O)[C@H](CC(N)=O)NC(=O)C(C(C)C)n2cc(nn2)CC(C(=O)N[C@@H](CCCCNS(=O)(=O)c2cccc3c(N(C)C)cccc23)C(=O)O)NC(=O)[C@H](Cc2ccccc2)NC(=O)[C@H](C(C)C)NC(=O)[C@H](CO)NC(=O)[C@H](CC(N)=O)NC(=O)[C@H](CC(N)=O)NC1=O (stereo partly drawn) [1a(ii)ext]	true	–	–	–	–	–	EC50 [1]: 7070 nM
CC[C@H](C)[C@@H]1NC(=O)[C@@H]2C[C@@H](CN2)NC(=O)[C@H](CO)NC(=O)[C@H](CC(N)=O)NC(=O)[C@H](CC(N)=O)NC1=O [3a(ii)]	true	–	–	–	–	–	EC50 [1]: 10000 nM
Tavilermide [D3]	–	–	–	–	–	–	TrkA agonism [2]: partial TrkA agonist; TrkC binding [3]: does not bind TrkC; p75 activation [4]: does not activate p75; glycoconjugated mucin secretion [5]: increased glycoconjugated mucin secretion
COc1ccc(C2=C3C=C(S(=O)(=O)O)C4=[N+]3[B-](F)(F)n3c2cc(S(=O)(=O)O)c3SC[C@@H](C(N)=O)NC(=O)[C@H](CO)NC(=O)[C@H](CC(N)=O)NC(=O)[C@H](CCC(N)=O)NC(=O)[C@H]([C@@H](C)O)NC(=O)[C@@H](NC(C)=O)CS4)cc1 [5c(ii)] (Ac-CTQNSC-NH2; linker 1-6 via X1)	true	–	–	–	–	–	Partial or True Agonism [1, 9]: partial; EC50 [1, 10]: 300 nM; EC50 [1, 11]: 4500 nM
COc1ccc(C2=C3C=C(S(=O)(=O)O)C4=[N+]3[B-](F)(F)n3c2cc(S(=O)(=O)O)c3SC[C@@H](C(N)=O)NC(=O)CNC(=O)[C@H](CO)NC(=O)[C@H](CCSC)NC(=O)[C@H](CC(=O)O)NC(=O)[C@@H](NC(C)=O)CS4)cc1 [5b(i)] (Ac-CDMSGC-NH2; linker 1-6 via X1)	–	1800	400	partial	true	–	–
COc1ccc(C2=C3C=C(S(=O)(=O)O)C4=[N+]3[B-](F)(F)n3c2cc(S(=O)(=O)O)c3SC[C@@H](C(N)=O)NC(=O)CNC(=O)[C@H](CCCCN)NC(=O)[C@H](CO)NC(=O)[C@H](C(C)C)NC(=O)[C@@H](NC(C)=O)CS4)cc1 [5b(ii)] (Ac-CVSKGC-NH2; linker 1-6 via X1)	–	2800	900	partial	true	–	–
CC[C@H](C)[C@@H]1NC(=O)[C@H](CC(=O)O)NC(=O)[C@@H]2C[C@@H](CN2)NC(=O)CNC(=O)[C@H](CCCNC(=N)N)NC1=O [3c(i)]	–	–	–	–	–	partial	–
COc1ccc(C2=C3C=C(S(=O)(=O)O)C4=[N+]3[B-](F)(F)n3c2cc(S(=O)(=O)O)c3SC[C@@H](C(N)=O)NC(=O)[C@H](CCC(N)=O)NC(=O)[C@H](CCCCN)NC(=O)[C@H](CCC(=O)O)NC(=O)[C@H](CC(=O)O)NC(=O)[C@@H](NC(C)=O)CS4)cc1 [5a(iii)m] (Ac-CDEKQC-NH2; linker 1-6 via X1)	true	–	–	–	–	–	Partial or True Agonism [1, 9]: partial; EC50 [1, 10]: 500 nM; EC50 [1, 11]: 2400 nM
COc1ccc(C2=C3C=C(S(=O)(=O)O)C4=[N+]3[B-](F)(F)n3c2cc(S(=O)(=O)O)c3SC[C@@H](C(N)=O)NC(=O)[C@H](CCCCN)NC(=O)[C@H](CC(N)=O)NC(=O)[C@H](CC(N)=O)NC(=O)[C@H](CCC(=O)O)NC(=O)[C@@H](NC(C)=O)CS4)cc1 [5c(iii)] (Ac-CENNKC-NH2; linker 1-6 via X1)	–	–	–	–	–	partial	Partial or True Agonism [7, 12]: true
CC[C@H](C)[C@@H]1NC(=O)[C@H](CC(=O)O)NC(=O)[C@@H](NC(C)=O)CSC2=[N+]3C(=C(c4ccc(OC)cc4)c4cc(S(=O)(=O)O)c(n4[B-]3(F)F)SC[C@@H](C(N)=O)NC(=O)CNC(=O)[C@H](CCCNC(=N)N)NC1=O)C=C2S(=O)(=O)O [5c(i)] (Ac-CDIRGC-NH2; linker 1-6 via X1)	–	2200	100	partial	true	partial	Partial or True Agonism [7, 12]: true
